The source of these data is patent US20250338846A1, “COMPOSITIONS HAVING PESTICIDAL UTILITY AND PROCESSES RELATED THERETO” (CORTEVA AGRISCIENCE, LLC, priority 2022, published 2025).

Read-outs that look alike come from different tables or passages of the source.

In assay [1] the test system is Western Flower Thrips (Frankliniella occidentalis, FRANOC). Nature of the assay: Bioassay 3: Western Flower Thrips, cotton leaf disc dip, live WFT counted 3 days after treatment. The class given is in vivo. The following applies: for pest or weed control at 7.8e-05 % strength: read-out: Average % Control AI. A digest of the protocol:
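Cotton leaf discs were dipped in acetone/water solutions with 0.025% Tween 20, at 0.005% to 0.0000195% (w/v) for single actives; mixtures held Formula One constant at 0.04% (w/v). Discs were air dried, infested with 5 nymphs aged 9-10 days, and held at approximately 26° C. Live thrips were counted at 3 days, with Abbott-corrected control against solvent checks.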

Assay [2] has as its system Neotropical Brown Stink Bug (Euschistus heros, EUSCHE). Nature of the assay: whole plant or invertebrate. Type of assay: in vivo. How it is done:
X=No. of live nymphs on solvent check and Y=No. of live nymphs on treated bean segments. In Table B4 the “Expected % Control” was calculated using the method described in Colby S. R., Weeds, 1967, 15, 20-22. Bioassay 5: Neotropical Brown Stink Bug (Euschistus heros, EUSCHE) (“BSB”).
Stock solutions were prepared with Formula One as well as for each of the active ingredients individually. Test solutions were prepared from the stock solutions. Test solutions were prepared containing Formula One, the individual active ingredients, and mixtures of Formula One with each of the active ingredients. The test solution for Formula One was prepared by adding 500 μL of the stock solution to a 25 mL glass vial, then adding 500 μL of acetone, followed by the addition of 9 mL water with 0.025% Tween®) 20 to create a 0.04% (w/v) solution. The individual active ingredients were prepared by adding 500 μL of stock solution to a 25 mL glass vial, then adding 500 μL of acetone, followed by the addition of 9 mL water with 0.025% Tween®) 20 to create a 0.005% (w/v) solution. The test solutions containing mixtures of Formula One and the individual active ingredients were prepared by adding 500 μL of the active ingredient stock solution to a 25 mL glass vial, followed by 500 μL of the Formula One stock solution, then by the addition of 9 mL water with 0.025% Tween®) 20 to create a test solution containing 0.04% (w/v) Formula One and 0.005% (w/v) of the active ingredient. Each test solution was serially diluted to create desired doses of test solutions (0.01% (w/v), 0.0025% (w/v), 0.000625% (w/v), 0.000156% (w/v), and 0.000039% (w/v)). In test solutions containing mixtures of Formula One and the active ingredients, the active ingredients were diluted as described above, but the Concentration of Formula One was held constant (0.04% (w/v)).
The test solutions that were tested against BSB were similar to those described above for WTPB. Fresh green beans were cut into segments approximately 1.5 inches long. Four bean segments were added to each test solution and soaked for approximately 15 minutes. After soaking, a single bean fragment was removed and placed into a single well of a 32-well rearing tray (Frontier Agricultural Sciences™), on top of a round filter paper disc. A reference treatment (solvent check) was treated with the diluent only. Each treatment was replicated four times and the test treatments were held at approximately 26° C. and ambient relative humidity (RH) prior to grading. Bean segments were allowed to air dry for ˜30 minutes. Three BSB nymphs were added to and contained in each well with a clear perforated adhesive lid. The total number of living BSB nymphs was recorded 3 days after application. Scoring was based off the total number of living nymphs out of all four replicates. Percent control was measured using Abbott's correction formula (W. S. Abbott, J. Econ. Entomol. 18 (1925), pp. 265-267) as follows:
where X=No. of live nymphs on solvent check and Y=No. of live nymphs on treated bean segments. In Table B5 the “Expected % Control” was calculated using the method described in Colby S. R., Weeds, 1967, 15, 20-22. Bioassay 6: Beet Armyworm (Spodoptera exigua, LAPHEG) (BAW), and Diamondback Moth (Plutella xylostella, PLUTMA) (DBM).

The mark [3] stands for this setting: Frankliniella occidentalis, foliar, 72 h, AI alone 0.0003125 % w/v.
The mark [4] stands for this setting: Euschistus heros, 72 h, AI alone 0.000625 % w/v.
The mark [5] stands for this setting: Euschistus heros, 72 h, AI alone 0.000156 % w/v, read-out: Average % Control AI.

For the compound Emamectin Benzoate, the “Average % Control AI” value was 38% in assay [1] (AI alone 0.005 % w/v) and 24% in assay [2] (AI alone 0.000156 % w/v). In the case of `CON=CNC(=O)c1ccc(C2=NOC(c3cc(Cl)cc(Cl)c3)(C(F)(F)F)C2)cc1C` (stereo not drawn) [Fluxametamide], the “Average % Control AI” value in assay [1] (AI alone 0.0003125 % w/v) is 67%; in assay [2] (AI alone 0.000625 % w/v), 17%. In assay [1] (Frankliniella occidentalis, foliar, 72 h, AI alone 0.005 % w/v), `CC[S+]([O-])c1c(C#N)nn(-c2c(Cl)cc(C(F)(F)F)cc2Cl)c1N` (stereo not drawn) [Ethiprole] gave a pest or weed control at 0.005 % strength of 0%. The compound also gave a pest or weed control at 3.91e-05 % strength in assay [2] (Euschistus heros, 72 h, AI alone 0.0000391 % w/v) of 0%. In the case of `CC1(C)[C@H](C(=O)O[C@H](C#N)c2cccc(Oc3ccccc3)c2)[C@@H]1/C=C(\Cl)C(F)(F)F` (racemic) [Lambda Cyhalothrin], the pest or weed control at 0.0003125 % strength in assay [1] (setting [3]) was determined as 7%. Moreover, the pest or weed control at 0.000625 % strength in assay [2] (setting [4]) is 8%. On to `CCN(C(=O)CCS(C)(=O)=O)c1sc(-c2cccnc2)nc1Cl` [Formula F1, N-(4-chloro-2-(pyridin-3-yl)thiazol-5-yl)-N-ethyl-3-(methylsulfonyl)propanamide], for which, in assay [2] (F1 alone 0.04 % w/v), the “Average % Control F1” value came to 0%. For `CN1COCN(Cc2cnc(Cl)s2)/C1=N\[N+](=O)[O-]` [Thiamethoxam], the pest or weed control at 7.8e-05 % strength in assay [1] (Frankliniella occidentalis, foliar, 72 h, AI alone 0.000078 % w/v) turned out to be 7%. For the same compound, the pest or weed control at 0.000156 % strength in assay [2] (setting [5]) came out at 17%.

`O=[N+]([O-])NC1=NCCN1Cc1ccc(Cl)nc1` [Imidacloprid] gave a pest or weed control at 0.0003125 % strength in assay [1] (setting [3]) of 0%. Also, the pest or weed control at 0.000625 % strength in assay [2] (setting [4]) was determined as 17%. For the compound `Cc1c(COC(=O)[C@@H]2[C@H](/C=C(\Cl)C(F)(F)F)C2(C)C)cccc1-c1ccccc1` (racemic) [Bifenthrin], in assay [2] (setting [5]), the pest or weed control at 0.000156 % strength amounted to 30%. Take Abamectin: the “Average % Control AI” value in assay [2] (AI alone 0.000625 % w/v) is 17%. Take `C/C(=N\C#N)N(C)Cc1ccc(Cl)nc1` [Acetamiprid]: in assay [1] (setting [3]), the pest or weed control at 0.0003125 % strength amounted to 13%. Consider `COP(=O)(NC(C)=O)SC` (stereo not drawn) [Acephate], for which the pest or weed control at 7.8e-05 % strength in assay [1] (Frankliniella occidentalis, foliar, 72 h) came out at 5%. In addition, the pest or weed control at 0.0025 % strength in assay [2] (Euschistus heros, 72 h, read-out: Average % Control AI) stood at 0%.
